Assay results taken from patent US11286228B2, “Stilbene derivative and method for preparing same” (Ozchela Inc., priority 2016, dated 2022).
pEC50, pIC50: −log10 of the molar value. Where two headings read alike, the source gives them in different places.

Tests used:
hepatitis C virus = assay: Antiviral activity in HCV replicon cells (Renilla luciferase); type: cell-based
Description: The antiviral activity of the stilbene derivatives on hepatitis C virus was measured. The replicon cells that stably replicate the hepatitis C virus genome were attached to a culture plate and cultured in a CO2 incubator at 37° C. for 24 hr. The replicon cells cultured for one day were washed with a PBS solution, treated with the compounds of the present invention, and then cultured for 72 hr. The stilbene derivative-treated replicon cells were washed with a cold PBS solution and added with 20 μL of a cell lysis solution so that the cells were lysed in ice for 20 min. 100 μL of a Renilla luciferase substrate was added thereto, after which the luminescence thereof was measured and thus the amount of the hepatitis C virus genome was estimated. The amount of the hepatitis C virus genome in the stilbene derivative-treated replicon cells according to the present invention relative to the amount of the hepatitis C virus genome in dimethylsulfoxide (DMSO)-treated replicon cells is shown.
Compounds 1 to 155 of Tables 1 to 10 may be grouped as follows based on the antiviral activity (EC50) values: […]

[1] = tested on: mitochondria obtained from hepatocytes; assay: Inhibitory activity on calcium-induced mitochondrial swelling (absorbance 520 nm)
Text: Cyclophilin is a key protein for forming permeability transition pores (PTP) in mitochondria. When permeability transition pores are formed, mitochondria swell, whereby the outer membrane thereof ruptures and thus cell death progresses. Such mitochondrial dysfunction causes many diseases including neurodegenerative diseases, cancer, and the like. Cyclosporine, a known cyclophilin inhibitor, is capable of preventing the formation of permeability transition pores to thus suppress mitochondrial swelling.
The mitochondrial swelling test was performed as follows. Specifically, the hepatocytes were disrupted using a Dounce tissue grinder. The disrupted cells were centrifuged at 700×g for 10 min and the supernatant was transferred into a new tube. The supernatant was centrifuged at 12,000×g for 15 min, thereby obtaining mitochondria.
When the extracted mitochondria were added with calcium, they swelled, which may be observed by measuring the absorbance at 520 nm. The stilbene derivatives are effective at inhibiting mitochondrial swelling due to calcium.
The activity of Compounds 1 to 155 of Tables 1 to 10 on inhibiting mitochondrial swelling may be determined based on IC50 values, and may be grouped as follows: […]

cyclophilin = assay: Cis-trans isomerase inhibitory activity (chymotrypsin-coupled Suc-AAPF-pNA cleavage, absorbance 390 nm); type: biochemical
Text: Chymotrypsin cleaves a trans-type alanine-proline peptide bond. When Suc-AAPF-pNA (a peptide substrate) and chymotrypsin are mixed, the trans-type peptide substrate is cleaved and the cis-type peptide substrate remains. The remaining cis-type peptide substrate is converted into a trans form by a cis-trans isomerase and is then cleaved again by chymotrypsin. When the cis-trans isomerase is present, chymotrypsin is able to cleave a larger amount of trans-type peptide substrate within a predetermined period of time, from which the activity of the cis-trans isomerase may be determined. The amount of the cleaved trans-type peptide substrate is measured using absorbance at 390 nm. Cyclophilin has cis-trans isomerase activity, and accelerates the cleavage of trans-type peptide substrate by chymotrypsin. When the stilbene derivatives of the present invention were treated together with cyclophilin, the cleavage of the peptide substrate by chymotrypsin was not observed to accelerate. Thereby, the stilbene derivatives of the invention can be concluded to inhibit the activity of cyclophilin.

[2] = Hepatitis C virus, HCV replicon cells, 72 hr, Renilla luciferase, relative to DMSO, read-out: Test Example 3: antiviral activity (EC50)
[3] = Hepatocyte, calcium-induced swelling of extracted mitochondria, read-out: Test Example 4: inhibiting mitochondrial swelling (IC50)
[4] = cyclophilin, chymotrypsin, Suc-AAPF-pNA, read-out: Test Example 1: cis-trans isomerase inhibitory activity (IC50)
[5] = Hepatitis C virus, 72 h, read-out: Test Example 3: antiviral activity (EC50)
[6] = Hepatitis C virus, HCV replicon cells, read-out: Test Example 3: antiviral activity (EC50) group
[7] = Hepatocyte, read-out: Test Example 4: activity on inhibiting mitochondrial swelling (IC50) group
[8] = read-out: Test Example 1: cis-trans isomerase inhibitory activity (IC50) group

Structure (SMILES) | pEC50 (hepatitis C virus; [2]) | pIC50 [1, 3] | pIC50 (cyclophilin; [4]) | also measured
CCCCCOC(=O)c1ccccc1C=C(N)c1ccc(CC(C)(C)C)cc1 [Compound 103] | 5.30 to 6.30 | 4.30 to 5.30 | 6.70 to 7.70 | 
CC(C)OC(=O)c1ccccc1C=C(N)c1ccc(CC(C)(C)C)cc1 [Compound 104] | 5.30 to 6.30 | 4.30 to 5.30 | 6.70 to 7.70 | 
CC(C)(C)Cc1ccc(C(N)=Cc2ccccc2C(=O)OCC2CCCCC2)cc1 [Compound 105] | 5.30 to 6.30 | 4.30 to 5.30 | 6.70 to 7.70 | 
CC(C)(C)Cc1ccc(C(N)=Cc2ccccc2C(=O)OCc2ccccc2)cc1 [Compound 106] | 5.30 to 6.30 | 4.30 to 5.30 | 6.70 to 7.70 | 
CC(C)(C)Cc1ccc(C(N)=Cc2ccccc2C(=O)OC2CCCCC2)cc1 [Compound 107] | 5.30 to 6.30 | 4.30 to 5.30 | 6.70 to 7.70 | 
CCCCOC(=O)c1ccccc1C=C(N)c1ccc(CC(C)CC)cc1 (stereo not drawn) [Compound 108] | 5.30 to 6.30 | 4.30 to 5.30 | 6.70 to 7.70 | 
CCCCOC(=O)c1ccccc1C=C(N)c1ccc(CC2CCCC2)cc1 [Compound 109] | 5.30 to 6.30 | 4.30 to 5.30 | 6.70 to 7.70 | 
CCCCOC(=O)c1ccccc1C=C(N)c1ccc(CC2CCCCC2)cc1 [Compound 110] | 5.30 to 6.30 | 4.30 to 5.30 | 6.70 to 7.70 | 
CCCCOC(=O)c1ccccc1C=C(N)c1ccc(Cc2ccccc2)cc1 [Compound 111] |  | 4.30 to 5.30 | 6.70 to 7.70 | pEC50 (hepatitis C virus; [5]): 5.30 to 6.30
CCCCOC(=O)c1ccccc1C=C(F)c1ccc(CC(C)(C)C)cc1 [Compound 112] | > 6.30 | > 5.30 | ≥ 7.70 | 
CCCCOC(=O)c1c(C)cccc1C=C(Cl)c1ccc(CC(C)(C)C)cc1 [Compound 113] | > 6.30 | > 5.30 | ≥ 7.70 | 
CCCCOC(=O)c1ccccc1C=C(Br)c1ccc(CC(C)(C)C)cc1C [Compound 114] | > 6.30 | > 5.30 | ≥ 7.70 | 
CCCCOC(=O)c1cc(C)ccc1C=C(I)c1ccc(CC(C)(C)C)cc1 [Compound 115] | > 6.30 | > 5.30 | ≥ 7.70 | 
CCCCOC(=O)c1c(C=C(F)c2ccc(CC(C)(C)C)cc2)ccc(C)c1C [Compound 116] | > 6.30 | > 5.30 | ≥ 7.70 | 
CCCCCOC(=O)c1ccccc1C=C(Cl)c1ccc(CC(C)(C)C)cc1 [Compound 117] | > 6.30 | > 5.30 | ≥ 7.70 | 
CC(C)OC(=O)c1ccccc1C=C(Br)c1ccc(CC(C)(C)C)cc1 [Compound 118] | > 6.30 | > 5.30 | ≥ 7.70 | 
CC(C)(C)Cc1ccc(C(I)=Cc2ccccc2C(=O)OCC2CCCCC2)cc1 [Compound 119] | > 6.30 | > 5.30 | ≥ 7.70 | 
CC(C)(C)Cc1ccc(C(F)=Cc2ccccc2C(=O)OCc2ccccc2)cc1 [Compound 120] | > 6.30 | > 5.30 | ≥ 7.70 | 
CC(C)(C)Cc1ccc(C(Cl)=Cc2ccccc2C(=O)OC2CCCCC2)cc1 [Compound 121] | > 6.30 | > 5.30 | ≥ 7.70 | 
CCCCOC(=O)c1ccccc1C=C(Br)c1ccc(CC(C)CC)cc1 (stereo not drawn) [Compound 122] | 5.30 to 6.30 | 4.30 to 5.30 | 6.70 to 7.70 | 
CCCCOC(=O)c1ccccc1C=C(I)c1ccc(Cc2ccccc2)cc1 [Compound 123] |  | 4.30 to 5.30 | 6.70 to 7.70 | pEC50 (hepatitis C virus; [5]): 5.30 to 6.30
COC(=O)c1ccccc1C=Cc1ccc(CC(C)(C)C)cc1 [Compound 124] | > 6.30 | > 5.30 | ≥ 7.70 | 
CCC(C)Cc1ccc(C=Cc2ccccc2C(=O)OC)cc1 (stereo not drawn) [Compound 125] | 5.30 to 6.30 | 4.30 to 5.30 | 6.70 to 7.70 | 
COC(=O)c1ccccc1C=Cc1ccc(CC2CCCC2)cc1 [Compound 126] | 5.30 to 6.30 | 4.30 to 5.30 | 6.70 to 7.70 | 

Structure (SMILES) | pEC50 (hepatitis C virus; [2]) | pIC50 [1, 3] | pIC50 (cyclophilin; [4]) | also measured
COC(=O)c1ccccc1C=Cc1ccc(CC2CCCCC2)cc1 [Compound 127] | 5.30 to 6.30 | 4.30 to 5.30 | 6.70 to 7.70 | 
COC(=O)c1ccccc1C=Cc1ccc(Cc2ccccc2)cc1 [Compound 128] |  | 4.30 to 5.30 | 6.70 to 7.70 | pEC50 (hepatitis C virus; [5]): 5.30 to 6.30
COC(=O)c1ccccc1C=Cc1ccc(CC(C)C)cc1 [Compound 129] | 5.30 to 6.30 | 4.30 to 5.30 | 6.70 to 7.70 | 
CCCCCc1ccc(C=Cc2ccccc2C(=O)OC)cc1 [Compound 130] | > 6.30 | > 5.30 | ≥ 7.70 | 
CCCCOC(=O)c1ccccc1C=Cc1ccc(CC(C)C)cc1 [Compound 131] | > 6.30 | > 5.30 | ≥ 7.70 | 
CCCCCc1ccc(C=Cc2ccccc2C(=O)OCCCC)cc1 [Compound 132] | > 6.30 | > 5.30 | ≥ 7.70 | 
CC(C)(C)Cc1ccc(C=Cc2ccccc2C(=O)O)cc1 [Compound 134] | > 6.30 | > 5.30 | ≥ 7.70 | 
CC(C)(C)Cc1ccc(C=Cc2cccc(O)c2C(=O)O)cc1 [Compound 135] | > 6.30 | > 5.30 | ≥ 7.70 | 
CC(C)(C)Cc1ccc(C=Cc2ccc(O)cc2C(=O)O)cc1 [Compound 136] | > 6.30 | > 5.30 | ≥ 7.70 | 
CC(C)(C)Cc1ccc(C=Cc2cccc(N)c2C(=O)O)cc1 [Compound 137] | > 6.30 | > 5.30 | ≥ 7.70 | 
CC(C)(C)Cc1ccc(C=Cc2ccc(N)cc2C(=O)O)cc1 [Compound 138] | > 6.30 | > 5.30 | ≥ 7.70 | 
Cc1cccc(C=Cc2ccc(CC(C)(C)C)cc2)c1C(=O)O [Compound 139] | > 6.30 | > 5.30 | ≥ 7.70 | 
Cc1ccc(C=Cc2ccc(CC(C)(C)C)cc2)c(C(=O)O)c1 [Compound 140] | > 6.30 | > 5.30 | ≥ 7.70 | 
CC(C)(C)Cc1ccc(C=Cc2ccccc2C(N)=O)cc1 [Compound 141] | > 6.30 | > 5.30 | ≥ 7.70 | 
CCCCOC(=O)c1cc2ccccc2cc1C=Cc1ccc(CC(C)(C)C)cc1 [Compound 142] | 5.30 to 6.30 | 4.30 to 5.30 | 6.70 to 7.70 | 
CCCCOC(=O)c1ccccc1C=Cc1ccc(CC(C)(C)C)cn1 [Compound 143] | 5.30 to 6.30 | 4.30 to 5.30 | 6.70 to 7.70 | 
CCCCOC(=O)c1ccccc1C=Cc1ccc(CC(C)(C)C)nc1 [Compound 144] | 5.30 to 6.30 | 4.30 to 5.30 | 6.70 to 7.70 | 
CCCCOC(=O)c1ncccc1C=Cc1ccc(CC(C)(C)C)cc1 [Compound 145] | 5.30 to 6.30 | 4.30 to 5.30 | 6.70 to 7.70 | 
CCCCOC(=O)c1cnccc1C=Cc1ccc(CC(C)(C)C)cc1 [Compound 146] |  |  |  | pEC50 (hepatitis C virus; [6]): 5.30 to 6.30; pIC50 [1, 7]: 4.30 to 5.30; pIC50 (cyclophilin; [8]): 6.70 to 7.70
CCCCOC(=O)c1ccncc1C=Cc1ccc(CC(C)(C)C)cc1 [Compound 147] |  |  |  | pEC50 (hepatitis C virus; [6]): 5.30 to 6.30; pIC50 [1, 7]: 4.30 to 5.30; pIC50 (cyclophilin; [8]): 6.70 to 7.70
CCCCOC(=O)c1cccnc1C=Cc1ccc(CC(C)(C)C)cc1 [Compound 148] |  |  |  | pEC50 (hepatitis C virus; HCV replicon cells, read-out: Test Example 3: antiviral activity (EC50) group): 5.30 to 6.30; pIC50 ([1]; read-out: Test Example 4: activity on inhibiting mitochondrial swelling (IC50) group): 4.30 to 5.30; pIC50 (cyclophilin; [8]): 6.70 to 7.70
CCCCOC(=O)c1cccc(C(=O)OCCCC)c1C=Cc1ccc(CC(C)(C)C)cc1 [Compound 149] |  |  |  | pEC50 (hepatitis C virus; [6]): 5.30 to 6.30; pIC50 [1, 7]: 4.30 to 5.30; pIC50 (cyclophilin; [8]): 6.70 to 7.70
CC(C)(C)Cc1ccc(C=Cc2c(O)cccc2C(=O)O)cc1 [Compound 150] |  |  |  | pEC50 (hepatitis C virus; [6]): > 6.30; pIC50 [1, 7]: > 5.30; pIC50 (cyclophilin; [8]): ≥ 7.70
CC(C)(C)Cc1ccc(C=Cc2c(N)cccc2C(=O)O)cc1 [Compound 151] |  |  |  | pEC50 (hepatitis C virus; [6]): > 6.30; pIC50 [1, 7]: > 5.30; pIC50 (cyclophilin; [8]): ≥ 7.70
